Data published in patent US20230159510A1, “NOVEL PRMT5 INHIBITORS” (AMGEN INC., priority 2020, published 2023).

Tests used:
PRMT5/MEP50 = PRMT5/MEP50 (Homo sapiens, UniProt O14744); test: MTase-Glo methyl transferase assay, Method B (FL-Histone H2A, 1 µM MTA, 1 h pre-incubation); assay type: biochemical; parameters: purchased Reaction Biology Corp RD-11-292; details: read-out: PRMT5 MTase Glo Ki (nM, Meth. B)
Procedure: Method B: The PRMT5 inhibitory activity of test compounds was determined using the MTase-Glo™ assay (Promega), which monitors the product (S-adenosyl homocysteine or SAH) of methyltransferase reactions. The PRMT5 MTase-Glo assay was conducted in a 384-well white ProxiPlate (PerkinElmer) in a total volume of 16 µL. The PRMT5 enzymatic reaction (in 8 µL) contained 4 nM PRMT5/MEP50 (Reaction Biology Corp, catalog no.: RD-11-292), 5 µM S-adenosyl methionine (SAM, Promega), 2.5 µM FL-Histone H2A (BPS Bioscience, catalog no.: 52021), 1 µM 5′-methylthioadenosine (MTA, Sigma) and ½ log serially diluted compounds in a reaction buffer of 50 mM Tris (pH 8.0), 50 mM NaCl, 0.01% Tween 20, 0.01% BSA, and 1 mM TCEP. Test compounds were pre-incubated with PRMT5/MEP50, SAM, and MTA for 1 hour before addition of FL-Histone H2A to initiate the PRMT5 reaction. The reaction was allowed to proceed for 20 hours at room temperature and was then terminated by addition of 1 µL of 9X MTase-Glo™ Reagent (Promega). After a 30-minute incubation at room temperature, 8 µL of MTase-Glo™ Detection Solution (Promega) was added and the plate was incubated at room temperature for an additional 30 minutes. The light signal corresponding to the amount of SAH produced by the PRMT5 reaction was subsequently measured using an Envision multimode reader (PerkinElmer). IC50 and KI values were obtained by analyzing dose-response curves using GraphPad Prism®.

HCT116 MTAP null cells = test: HCT116 proliferation assay, MTAP null cells (CellTiter-Glo, 6 days); assay type: cell-based; details: HCT116-MTAP null, 144 h, read-out: Protif_ HCT116-MTAP null IC50
Method in brief: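 Cells were plated in RPMI 1640 with 10% fetal bovine serum and left overnight at 37° C and 5% CO2. Compound was then added as an 8- or 9-point 1:3 dilution series from a top concentration of 1 or 10 µM, alongside a DMSO-only control. Viability was read by luminescence.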

PRMT5/MEP50, sequence (O14744 2-637 limits assumed): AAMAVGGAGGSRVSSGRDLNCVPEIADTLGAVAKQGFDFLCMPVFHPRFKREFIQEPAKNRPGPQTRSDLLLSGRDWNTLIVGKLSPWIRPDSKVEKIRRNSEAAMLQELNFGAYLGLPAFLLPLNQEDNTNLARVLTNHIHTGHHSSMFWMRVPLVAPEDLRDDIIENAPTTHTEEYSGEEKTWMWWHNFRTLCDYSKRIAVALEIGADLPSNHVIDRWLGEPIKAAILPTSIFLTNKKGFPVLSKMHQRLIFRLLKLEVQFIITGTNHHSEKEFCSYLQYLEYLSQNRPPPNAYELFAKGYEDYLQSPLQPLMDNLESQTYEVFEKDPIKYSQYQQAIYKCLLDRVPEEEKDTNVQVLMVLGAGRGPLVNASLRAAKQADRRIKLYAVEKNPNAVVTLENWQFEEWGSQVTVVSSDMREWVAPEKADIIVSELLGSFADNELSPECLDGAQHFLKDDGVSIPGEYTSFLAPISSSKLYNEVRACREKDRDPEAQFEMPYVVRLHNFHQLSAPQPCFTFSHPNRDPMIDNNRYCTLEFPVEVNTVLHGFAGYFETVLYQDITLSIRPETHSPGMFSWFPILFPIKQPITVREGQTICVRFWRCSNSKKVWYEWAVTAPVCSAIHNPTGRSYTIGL
PRMT5/MEP50, sequence (Q9BQA1 2-342 partner limits assumed): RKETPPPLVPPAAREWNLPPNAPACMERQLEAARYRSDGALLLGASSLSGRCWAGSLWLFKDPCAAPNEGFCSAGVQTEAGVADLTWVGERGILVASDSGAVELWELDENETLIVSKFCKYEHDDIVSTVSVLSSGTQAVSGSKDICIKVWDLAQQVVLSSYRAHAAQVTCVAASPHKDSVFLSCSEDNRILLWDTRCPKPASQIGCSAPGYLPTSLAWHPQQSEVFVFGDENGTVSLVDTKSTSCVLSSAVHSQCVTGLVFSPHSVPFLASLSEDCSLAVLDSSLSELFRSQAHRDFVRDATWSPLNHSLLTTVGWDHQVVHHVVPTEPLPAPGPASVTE

Compound | Ki (PRMT5/MEP50) [nM] | IC50 (HCT116 MTAP null cells) [nM]
Cc1cc2cc(C(=O)N(Cc3ccc(C(F)(F)F)cn3)C(C)CC3CC3)ccc2nc1N (stereo not drawn) [Example 696, 2-amino-N-(2-cyclopropyl-1-methylethyl)-3-methyl-N-[[5-(trifluoromethyl)-2-pyridyl]methyl] quinoline-6-carboxamide] | 2.19 | 200
Cc1cc2cc(C(=O)N(Cc3ccc(C(F)(F)F)cn3)C(C)C3CCCO3)ccc2nc1N (stereo not drawn) [Example 632, 2-amino-3-methyl-N-(1-tetrahydrofuran-2-ylethyl)-N-[[5-(trifluoromethyl)-2-pyridyl]methyl] quinoline-6-carboxamide] | 5.3 | 340
CCn1ncc2c1CCCC2N(Cc1ccc(C(F)(F)F)cn1)C(=O)c1ccc2nc(N)c(C)cc2c1 (stereo not drawn) [Example 673, 2-amino-N-(1-ethy1-4,5,6,7-tetrahydroindazol-4-yl)-3-methyl-N-[[5-(trifluoromethyl)-2-pyridyl]methyl] quinoline-6-carboxamide] | 5.32 | 95
Cc1cc2cc(C(=O)N(CCC3CCC3)Cc3ccc(C(F)(F)F)cn3)ccc2nc1N [Example 629, 2-amino-N-(2-cyclobutylethyl)-3-methyl-N-((5-(trifluoromethyl)pyridin-2-yl)methyl)quinoline-6-carboxamide] | 5.93 | 770
C#CCCN(Cc1ccc(C(F)(F)F)cn1)C(=O)c1ccc2nc(N)c(C)cc2c1 [Example 659, 2-amino-N-but-3-ynyl-3-methyl-N-[[5-(trifluoromethyl)-2-pyridyl]methyl] quinoline-6-carboxamide] | 4.33 | 251
COc1ccnc2c1CCCC2N(Cc1ccc(C(F)(F)F)cn1)C(=O)c1ccc2nc(N)c(C)cc2c1 (stereo not drawn) [Example 666, 2-amino-N-(4-methoxy-5,6,7,8-tetrahydroquinolin-8-yl)-3-methyl-N-[[5-(trifluoromethyl)-2-pyridyl]methyl] quinoline-6-carboxamide] | 3.93 | 41
Cc1cc2cc(C(=O)N(Cc3ccc(C(F)(F)F)cn3)C3CCc4[nH]cnc4C3)ccc2nc1N (stereo not drawn) [Example 670, 2-amino-3-methyl-N-(4,5,6,7-tetrahydro-1H-benzimidazol-5-yl)-N-[[5-(trifluoromethyl)-2-pyridyl]methyl] quinoline-6-carboxamide] | 5.15 | 860
Cc1cc2cc(C(=O)N(Cc3ccc(C(F)(F)F)cn3)C3CCCc4ncccc43)ccc2nc1N (stereo not drawn) [Example 667, 2-amino-3-methyl-N-(5,6,7,8-tetrahydroquinolin-5-yl)-N-[[5-(trifluoromethyl)-2-pyridyl]methyl] quinoline-6-carboxamide] | 3.9 | 24
CCC(C1CCOCC1)N(Cc1ccc(C(F)(F)F)cn1)C(=O)c1ccc2nc(N)c(C)cc2c1 (stereo not drawn) [Example 681, 2-amino-3-methyl-N-(1-tetrahydropyran-4-ylpropyl)-N-[[5-(trifluoromethyl)-2-pyridyl]methyl] quinoline-6-carboxamide] | 4.87 | 240
CC#CCN(Cc1ccc(C(F)(F)F)cn1)C(=O)c1ccc2nc(N)c(C)cc2c1 [Example 657, 2-amino-N-but-2-ynyl-3-methyl-N-[[5-(trifluoromethyl)-2-pyridyl]methyl] quinoline-6-carboxamide] | 5.34 | 620
Cc1cc2cc(C(=O)N(Cc3ccc(C(F)(F)F)cn3)C3CCCC4OCCC43)ccc2nc1N (stereo not drawn) [Example 633, N-(2,3,3a,4,5,6,7,7a-octahydrobenzofuran-4-yl)-2-amino-3-methyl-N-[[5-(trifluoromethyl)-2-pyridyl]methyl] quinoline-6-carboxamide] | 4.8 | 330
Cc1cc2cc(C(=O)N(Cc3ccc(C(F)(F)F)cn3)C(C)CC(C)C)ccc2nc1N (stereo not drawn) [Example 634, 2-amino-N-(1,3-dimethylbutyl)-3-methyl-N-[[5-(trifluoromethyl)-2-pyridyl]methyl] quinoline-6-carboxamide] | 6.84 | 930
Cc1cc2cc(C(=O)N(Cc3ccc(C(F)(F)F)cn3)CC3CCCC(O)C3)ccc2nc1N (stereo not drawn) [Example 678, 2-amino-N-[(3-hydroxycyclohexyl)methyl]-3-methyl-N-[[5-(trifluoromethyl)-2-pyridyl]methyl] quinoline-6-carboxamide] | 5.57 | 500
Cc1cc2cc(C(=O)N(Cc3ccc(C(F)(F)F)cn3)C3CCC4CCCC4C3)ccc2nc1N (stereo not drawn) [Example 669, N-(2,3,3a,4,5,6,7,7a-octahydro-1H-inden-5-yl)-2-amino-3-methyl-N-[[5-(trifluoromethyl)-2-pyridyl]methyl] quinoline-6-carboxamide] | 8.5 | 820
Cc1cc2cc(C(=O)N(Cc3ccc(C(F)(F)F)cn3)C3CC4(C3)CC(F)(F)C4)ccc2nc1N [Example 698, 2-amino-N-(2,2-difluorospiro [3.3]heptan-6-yl)-3-methyl-N-[[5-(trifluoromethyl)-2-pyridyl]methyl] quinoline-6-carboxamide] | 36.4 | –
Cc1cc2cc(C(=O)N(Cc3cccc(-n4cncn4)c3)CC(C)C)ccc2nc1N [Example 644, 2-amino-N-isobutyl-3-methyl-N-[[3-(1,2,4-triazol-1-yl)phenyl]methyl] quinoline-6-carboxamide] | 29.3 | –
Cc1cc2cc(C(=O)N(Cc3ccc(C(F)(F)F)cn3)C(C)C(C)n3cccn3)ccc2nc1N (stereo not drawn) [Example 679, 2-amino-3-methyl-N-(1-methyl-2-pyrazol-1-yl-propyl)-N-[[5-(trifluoromethyl)-2-pyridyl]methyl] quinoline-6-carboxamide] | 36.8 | –

The next lines start with the values.

Ki (PRMT5/MEP50) [nM] | IC50 (HCT116 MTAP null cells) [nM] | Compound
2.94 | 330 | Cc1cc2cc(C(=O)N(Cc3ccc[nH]3)Cc3ccnc4[nH]ccc34)ccc2nc1N [Example 689, 2-amino-3-methyl-N-(1H-pyrrolo[2,3-b]pyridin-4-ylmethyl)-N-(1H-pyrrol-2-ylmethyl)quinoline-6-carboxamide]
9.17 | 680 | Cc1cc2cc(C(=O)N(Cc3cc(Br)ccn3)CC(C)C)ccc2nc1N [Example 665, 2-amino-N-[(4-bromo-2-pyridyl)methyl]-N-isobutyl-3-methylquinoline-6-carboxamide]
14.1 | 730 | Cc1cc2cc(C(=O)N(Cc3ncccc3Br)CC(C)C)ccc2nc1N [Example 640, 2-amino-N-[(3-bromo-2-pyridyl)methyl] -N-isobutyl-3-methylquinoline-6-carboxamide]
1.9 | 200 | CNC(=O)c1ccc(CN(Cc2ccc(C(F)(F)F)cn2)C(=O)c2ccc3nc(N)c(C)cc3c2)cc1 [Example 638, 2-amino-3-methyl-N-[[4-(methylcarbamoyl)phenyl]methyl]-N-[[5-(trifluoromethyl)-2-pyridyl]methyl] quinoline-6-carboxamide]
12.2 | 580 | Cc1cc2cc(C(=O)N(Cc3cc(Cl)ccn3)CC(C)C)ccc2nc1N [Example 639, 2-amino-N-[(4-chloro-2-pyridyl)methyl]-N-isobutyl-3-methylquinoline-6-carboxamide]
7.14 | 800 | Cc1cc2cc(C(=O)N(Cc3ccc(C(O)C(F)(F)F)cc3)Cc3ccc(C(F)(F)F)cn3)ccc2nc1N (stereo not drawn) [Example 660, 2-amino-3-methyl-N-[ [4-(2,2,2-trifluoro-1-hydroxyethyl)phenyl]methyl]-N-[[5-(trifluoromethyl)-2-pyridyl]methyl] quinoline-6-carboxamide]
2.79 | 280 | Cc1cc2cc(C(=O)N(Cc3ccc(C(F)(F)F)cn3)Cc3ccccc3-n3ccnc3)ccc2nc1N [Example 653, 2-amino-N-[(2-imidazol-1-ylphenyl)methyl]-3-methyl-N-[[5-(trifluoromethyl)-2-pyridyl]methyl] quinoline-6-carboxamide]
3.51 | 520 | Cc1cc2cc(C(=O)N(Cc3ccc(N)cn3)Cc3c[nH]c4ccccc34)ccc2nc1N [Example 691, 2-amino-N-[(5-amino-2-pyridyl)methyl]-N-(1H-indol-3-ylmethyl)-3-methyl-quinoline-6-carboxamide]
1.81 | 69 | Cc1cc2cc(C(=O)N(Cc3ccc(O)cc3)Cc3ccc(C(F)(F)F)cn3)ccc2nc1N [Example 661, 2-amino-N-[(4-hydroxyphenyl)methyl]-3-methyl-N-[[5-(trifluoromethyl)-2-pyridyl]methyl] quinoline-6-carboxamide]
1.56 | 110 | Cc1cc2cc(C(=O)N(Cc3ccnc4[nH]ccc34)Cc3ccnn3C)ccc2nc1N [Example 687, 2-amino-3-methyl-N-[(2-methylpyrazol-3-yl)methy1] -N-(1 H-pyrrolo [2,3-b]pyridin-4-ylmethyl)quinoline-6-carboxamide]
